Data taken from patent publication US5300524A, “Spirocyclic PAF antagonists” (British Bio-Technology Limited, priority 1991, dated 1994).

How the values were obtained:
[1] = molecular target: T1, PAF receptor (^3 H-PAF binding to human platelet plasma membrane) (Homo sapiens, UniProt P25105); assay: Inhibition of ^3H-PAF binding to human platelet plasma membrane (isotopic labelling and filtration); details: human platelet membranes, 0.5 nM ^3H-PAF, 1 hour, 0° C.
T1 construct: from tissue; host or cells: human platelets (concentrates from a hospital blood bank), lysed by freeze-thaw, membrane fraction

[2] = system: PAF-induced hypotension in rats; assay: Reversal of PAF-induced hypotension in the rat; format: in vivo; details: iv, anaesthetised male Sprague-Dawley rats, PAF 100 ng.kg^-1 min^-1 i.v. infusion, compound i.v. bolus, read-out: ED50, dose to cause a 50% reversal of the hypotensive PAF response
Procedure: Compounds of general formula I inhibit PAF-induced functions in both the cellular and tissue levels by changing the PAF binding to its specific receptor site. The ability of compounds of general formula I to inhibit the binding of PAF to its specific receptor binding site on human platelet plasma membranes was measured according to Pharmacological Example 1. The ability of compounds of general formula I to reverse the hypotension caused by an infusion of PAF in rats was measured according to Pharmacology Example 2. […] Male Sprague-Dawley rats (300-350 gms) were anaesthetised with a mixture of sodium pentobarbitone, 22.5 mg.kg^-1 and thiopental 62.5 mg.kg^-1. Through a midline incision in the neck, the trachea was cannulated and the animals breathed spontaneously. A carotid artery was cannulated for the measurement of blood pressure and this signal was used to trigger a rate meter to measure heart rate. Both jugular veins were cannulated: one for the infusion of PAF and the other for the bolus administration of test compounds.

T1 sequence (P25105 whole entry): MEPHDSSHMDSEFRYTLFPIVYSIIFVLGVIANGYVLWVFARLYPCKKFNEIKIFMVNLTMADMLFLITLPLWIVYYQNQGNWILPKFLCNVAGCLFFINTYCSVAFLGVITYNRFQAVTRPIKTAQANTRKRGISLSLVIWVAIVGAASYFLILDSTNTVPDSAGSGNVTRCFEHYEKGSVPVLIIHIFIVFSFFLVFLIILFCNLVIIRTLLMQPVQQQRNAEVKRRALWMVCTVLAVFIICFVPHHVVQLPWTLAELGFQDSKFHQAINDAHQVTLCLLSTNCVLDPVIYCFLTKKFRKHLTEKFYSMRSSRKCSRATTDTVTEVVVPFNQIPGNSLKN

Compound | IC50 [1] [µM] | ED50 [2] [mg/kg]
COc1ccc(C2CCC3(O2)C(=O)C(=CCCCCc2cccnc2)CC3c2ccc(OC)c(OC)c2)cc1OC (stereo not drawn) [Example 11, 1-Oxa-6-oxo-7-(3-pyridylbutyl)methylene-2,9-di(3,4-dimethoxyphenyl)spiro[4,4]nonane] | 1 | 
COc1ccc(C2CCC3(O2)C(=O)CCC3c2ccc(OC)cc2)cc1 (stereo not drawn) [Example 18, 1-Oxa-6-oxo-2,9-di(4-methoxyphenyl)spiro[4,4]nonane] | 5 | 
COc1ccc(C2CCC3(O2)C(=O)C(=Cc2cccnc2)CC3c2ccc(OC)cc2)cc1 (stereo not drawn) [Example 19, 1-Oxa-6-oxo-7-(3-pyridyl)methylene-2,9-di(4-methoxyphenyl)spiro[4,4]nonane] | 9 | 

Second part, led by results:

IC50 [1] [µM] | Compound | ED50 [2] [mg/kg]
12 | COc1ccc(C2CCC3(O2)C(=O)CCC3c2ccc(OC)c(OC)c2)cc1OC (single isomer, unassigned) [Example 1A, 1-oxa-6-oxo-2,9-(3,4-dimethoxyphenyl)spiro[4,4]nonane] | 
3 | COc1ccc(C2CCC3(O2)C(=O)C(=Cc2cccnc2)CC3c2ccc(OC)c(OC)c2)cc1OC (stereo not drawn) [Example 2, 1-Oxa-6-oxo-7-(3-pyridyl)methylene-2,9-di(3,4-dimethoxyphenyl)spiro[4,4]nonane] | 0.8
5 | COc1ccc(C2CCC3(O2)C(=O)C(=Cc2cccc(Cl)c2)CC3c2ccc(OC)c(OC)c2)cc1OC (stereo not drawn) [Example 5, 1-Oxa-6-oxo-7-(3-chlorophenyl)methylene-2,9-di(3,4-dimethoxyphenyl)spiro[4,4]nonane] | 
1.5 | COc1ccc(C2CCC3(O2)C(=O)C(=CCCc2cccnc2)CC3c2ccc(OC)c(OC)c2)cc1OC (stereo not drawn) [Example 10, 1-Oxa-6-oxo-7-(3-pyridylethyl)methylene-2,9-di(3,4-dimethoxyphenyl)spiro[4,4]nonane] | 
1.5 | COc1ccc(C2CCC3(O2)C(=CC#N)CCC3c2ccc(OC)c(OC)c2)cc1OC (stereo not drawn) [Example 17, 1-Oxa-6-cyanomethylene-2,9-di(3,4-dimethoxyphenyl)spiro[4,4]nonane] | 
